Experimental data from paper PMC9354705, “Characterization of TR‐107, a novel chemical activator of the human mitochondrial protease ClpP” (Pharmacology Research & Perspectives, 2022).
Read-outs that look alike come from different tables or passages of the source.

Columns and labels:
[1] = test system: MDA‐MB‐231 or SUM159 cells; experiment: Caspase‐3/7 activity assay and PARP cleavage; type: cell-based, human; settings: for caspase‐3/7 activity: 24 h, 10 μM ONC201, 150 nM TR‐57, 100 nM TR‐107, 100 nM staurosporine; for PARP cleavage: data not shown
Experimental: […]. The samples were collected in lysis buffer (50 mM HEPES [pH: 7.4], 5 mM CHAPS, and 5 mM DTT), and caspase activity was measured by monitoring fluorescence (ex/em: 360/460 nm) using a SpectraMax i3x (Molecular Devices).

MDA‐MB‐231 cells = experiment: Cell viability (total cell count, Hoechst stain) in MDA‐MB‐231 cells; type: cell-based, human; settings: Homo sapiens, MDA-MB-231, 72 h
SUM159 cells = experiment: Cell viability (total cell count, Hoechst stain) in SUM159 cells; type: cell-based; settings: Homo sapiens, WT cells, 72 h, mean N = 3
Experimental: Human TNBC cell line SUM159 was a generous gift from Dr. Gary Johnson (the University of North Carolina at Chapel Hill). MDA‐MB‐231 (WT and CLPP‐KO) cells were provided by Dr. Stanley Lipkowitz (National Cancer Institute). MDA‐MB‐231 cells were cultured in RPMI‐1640 media (Gibco, 11875‐093) supplemented with 10% fetal bovine serum (FBS; VWR‐Seradigm, 97068‐085), and 1% antibiotic–antimycotic (anti/anti; ThermoFisher Scientific, 15240062). SUM159 cells were cultured in Dulbecco's modified Eagle's medium: Nutrient Mixture F‐12 (DMEM/F12; Gibco, 11330‐032) supplemented with 5% FBS, 5 μg/ml insulin (Gibco, 12585014), 1 μg/ml hydrocortisone, and 1% anti/anti. Cells were maintained at 5% CO2 and 37°C and periodically tested for mycoplasma.
Total cell counting assays were performed by seeding MDA‐MB‐231 cells (WT and ClpP‐KO; 4000 cells/well) or SUM159 (WT and ClpP‐KO; 1000 cells/well) in a 96‐well plate (Perkin Elmer, 6005050) and allowed to adhere overnight. The growth medium was then aspirated and replaced with 100 μl of growth medium supplemented with the drug at concentrations indicated in the figure or figure legends. Cells treated with vehicle control (0.1% DMSO, Sigma‐Aldrich D2650) were used as a negative control in all experiments, and cells were incubated with drug‐containing media for 24, 48, or 72 h as indicated in figure legends. Media was then aspirated and replaced with 100 μl Dulbecco's phosphate‐buffered saline (DPBS Gibco, 14190‐144) containing 1 μg/ml Hoechst stain (ThermoFischer Scientific, H3570) and allowed to incubate at 37°C for 30 min. The total cell number was then quantified using the Celigo Imaging Cytometer (Nexcelom).

[2] = target: purified recombinant human ClpP (Homo sapiens, UniProt Q16740); experiment: In vitro ClpP activity assay (casein‐FITC degradation); type: biochemical; settings: relative to DMSO, read-out: EC50 (nM) ClpP activation
Sequence of purified recombinant human ClpP (Q16740 57-277): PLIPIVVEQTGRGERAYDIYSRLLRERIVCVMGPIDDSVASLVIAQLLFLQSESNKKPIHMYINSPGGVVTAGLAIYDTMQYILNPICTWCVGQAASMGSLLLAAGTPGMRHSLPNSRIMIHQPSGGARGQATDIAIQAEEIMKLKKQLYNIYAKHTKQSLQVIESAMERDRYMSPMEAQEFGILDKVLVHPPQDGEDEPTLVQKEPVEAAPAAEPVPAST
Experimental: Measurement of in vitro activity of purified recombinant human ClpP was performed with a slight modification to the method previously described.[46] Briefly, ClpP activity was measured through the degradation of casein‐FITC (Sigma‐Aldrich, C0528) in the presence of indicated compounds. […] Enzyme and compounds were mixed and incubated in assay buffer for 30 min before adding casein‐FITC substrate. […] Linear slope of fluorescence signal was used to measure ClpP activity and normalized to DMSO control, expressed as RFU/h.

[3] = Pharmacokinetic analysis in ICR mice; type: in vivo, mouse; settings: for bioavailability: 10 mg/kg oral vs 2.0 mg/kg i.v., read-out: F% (oral bioavailability)
Experimental: Samples were placed in tubes containing heparin sodium and stored on ice until centrifuged. Blood samples were centrifuged at 6800g for 6 min at 2–8°C within 1 h following sample collection and stored at −80°C. Proteins from plasma sample aliquots (20 μl) were precipitated by the addition of MeOH (400 μl) containing an internal standard (tolbutamide,100 ng/ml), vortexed for 1 min, and centrifuged at 18 000g for 7 min. The supernatant (200 μl) was transferred to 96 well plates for analysis.
Analysis of samples was conducted as follows. […] The PK parameters including Area Under the Curve (AUC[0–∞]) elimination half‐life (t 1/2), maximal plasma concentration (C max), and oral bioavailability (F%) were analyzed by noncompartmental methods.

[4] = test system: MDA‐MB‐231 and SUM159 cells; experiment: Immunoblotting for mitochondrial proteins; type: cell-based, human; settings: 100 nM TR‐107, 150 nM TR‐57, or 10 μM ONC201
Experimental: Cell lysates were clarified and immunoblotted as described earlier.[45] Membranes were incubated with primary antibodies (Appendix S1) diluted 1:1000 in 1% fish gelatin (Sigma‐Aldrich, G7041)/TBST overnight at 4°C, removed, washed 3 × 5 min in TBST, and placed in their respective 2° antibodies (1:10 000 dilution in 5% milk/TBST) for 1 h. […] Acquired images were processed/quantified using Image Lab software (BioRad) or Image Studio Lite (LI‐COR).

[5] = cited from earlier work
C3(1)‐Tag cells = experiment: Cell viability assay of C3Tag cells; type: cell-based, murine; settings: Mus musculus; 72 h, Hoechst stain, N = 2
[6] = WT cells, Hoechst stain, mean N = 3, read-out: IC50 (nM) MDA-MB-231
[7] = male, mouse, plasma, iv, ICR mice, 2.0 mg/kg i.v.
[8] = male, mouse, plasma, iv, ICR mice, 2.0 mg/kg i.v., read-out: C max
[9] = male, mouse, plasma, iv, ICR mice, 2.0 mg/kg i.v., read-out: T 1/2 (converted)
[10] = male, mouse, plasma, ICR mice, 10 mg/kg oral, read-out: C max
[11] = male, mouse, plasma, ICR mice, 10 mg/kg oral, read-out: T 1/2 (converted)
[12] = male, mouse, plasma, iv, ICR mice, 2.0 mg/kg i.v., read-out: C max (mg/ml)
[13] = male, mouse, plasma, ICR mice, 10 mg/kg oral, read-out: C max (mg/ml)
[14] = male, mouse, plasma, ICR mice, 10 mg/kg oral

Row | Compound | EC50 [2] [nM] | AUC(0-inf) [3, 7] [ng·h/mL] | Cmax [3, 8] [nM] | half-life [3, 9] [h] | bioavailability ([3]; male, mouse, plasma, ICR mice) [%] | Cmax [3, 10] [nM] | half-life [3, 11] [h] | Cmax [3, 12] [ng/mL] | Cmax [3, 13] [ng/mL] | IC50 (MDA‐MB‐231 cells; [6]) [nM] | IC50 (SUM159 cells) [nM] | further results
1 | CN[C@@H]1C[C@H]2O[C@@](C)([C@@H]1OC)n1c3ccccc3c3c4c(c5c6ccccc6n2c5c31)C(=O)NC4 [Staurosporine, staurosporine, reference compound] |  |  |  |  |  |  |  |  |  |  |  | caspase‐3/7 activity [1]: strong increase
2 | N#Cc1cccc(CC2CCC3=C(C2)C(=O)N(Cc2ccc(C(F)(F)F)cc2)C2=NCCN23)c1 (stereo not shown) [TR‐109] | 670 |  |  |  |  |  |  |  |  | 2200 | 4600 | 
3 | Cc1ccccc1CN1C(=O)C2=C(CCN(Cc3ccccc3)C2)N2CCN=C12 [ONC201, reference compound] |  | 50.7 | 310 | 0.26 | 1.2 | 23 | 0.31 |  |  |  |  | IC50 (MDA‐MB‐231 cells; media containing galactose, read-out: IC50 (nM) Galactose): 350 nM; IC50 (MDA‐MB‐231 cells; media containing glucose, read-out: IC50 [glucose]): 1700 nM; increase in exposure (AUC) vs 10 mg/kg oral ([3]; 25 mg/kg oral): 46 X; AUC (0–∞) ([3]; ICR mice, 10 mg/kg oral): 3.13 ng·h/mL; Cmax ([3]; male, mouse, in vivo, iv, ICR mice, 2.0 mg/kg i.v., read-out: C max (mg/ml)): 122 ng/mL; Cmax ([3]; male, mouse, in vivo, ICR mice, 10 mg/kg oral, read-out: C max (mg/ml)): 8.99 ng/mL; Cmax ([3]; male, mouse, in vivo, ICR mice, 25 mg/kg oral, blood collection 0.083–4 h, read-out: C max (mg/ml)): 195 ng/mL; AUC(0-inf) ([3]; male, mouse, plasma, ICR mice, 25 mg/kg oral, blood collection 0.083–4 h): 145 ng·h/mL; Cmax ([3]; male, mouse, plasma, ICR mice, 25 mg/kg oral, blood collection 0.083–4 h, read-out: C max): 500 nM; half-life ([3]; male, mouse, plasma, ICR mice, i.v. 2 mg/kg and oral 10 mg/kg arms, read-out: t 1/2 (range over study arms)): 0.26 to 0.31 h; caspase‐3/7 activity [1]: no increase; PARP cleavage [1]: no increase; TUFM and TFAM protein levels by 24 h [4]: complete or near‐complete loss; time at which TUFM and TFAM protein levels began to decline [4]: ~ 6 h; reported t 1/2 ([5]; in mice, higher doses): 6.4 h
4 | C#Cc1cccc(CN2CCC3=C(C2)C(=O)N(Cc2ccc(Cl)cc2)C2=NCCN23)c1 [TR‐27] |  | 155 | 350 | 1.06 | 33 | 290 | 1.16 | 154 | 127 |  |  | 
5 | Cn1c2c(c(=O)n(Cc3ccc(Cl)cc3)c1=O)CN(Cc1cccc(C#N)c1)CC2 [TR‐57] |  | 886 | 3000 | 1.52 | 61 | 4100 | 1.4 | 1240 | 1710 |  |  | AUC ([3]; male, mouse, plasma, po, ICR mice, 10 mg/kg orally, read-out: exposure (AUC)): 2710 ng·h/mL; AUC(0-inf) [3, 14]: 2710 ng·h/mL; caspase‐3/7 activity [1]: no increase; PARP cleavage [1]: no increase; TUFM and TFAM protein levels by 24 h [4]: complete or near‐complete loss; time at which TUFM and TFAM protein levels began to decline [4]: ~ 6 h
6 | CC(=O)O[C@H]1C(=O)[C@@]2(C)[C@H]([C@H](OC(=O)c3ccccc3)[C@]3(O)C[C@H](OC(=O)[C@H](O)[C@@H](NC(=O)c4ccccc4)c4ccccc4)C(C)=C1C3(C)C)[C@]1(OC(C)=O)CO[C@@H]1C[C@@H]2O [Paclitaxel, paclitaxel, reference compound] |  |  |  |  |  |  |  |  |  |  |  | IC50 (C3(1)‐Tag cells): 0.014 µM

Further lines, with some results ahead:

Row | EC50 [2] [nM] | AUC(0-inf) [3, 7] [ng·h/mL] | Cmax [3, 8] [nM] | half-life [3, 9] [h] | bioavailability ([3]; male, mouse, plasma, ICR mice) [%] | Cmax [3, 10] [nM] | half-life [3, 11] [h] | Cmax [3, 12] [ng/mL] | Cmax [3, 13] [ng/mL] | Compound | IC50 (MDA‐MB‐231 cells; [6]) [nM] | IC50 (SUM159 cells) [nM] | further results
7 | 310 | 638 | 2200 | 1.68 | 14 | 640 | 1.49 | 950 | 282 | O=C1C2=C(CCN(Cc3ccccc3)C2)N2CCN=C2N1Cc1ccc(C(F)(F)F)cc1 [ONC212/TR‐31, reference compound] | 80 | 27 | AUC(0-inf) [3, 14]: 449 ng·h/mL; reported t 1/2 ([5]; oral dose of 125 mg/kg): 4.3 h
8 | 1100 |  |  |  |  |  |  |  |  | N#Cc1cccc(CN2CCC3=C(C2)C(=O)N(Cc2ccc(Cl)cc2)C2=NCC(F)(F)CN23)c1 [TR‐106] | 430 | 120 | 
9 |  | 351 | 1500 | 0.73 | 33 | 670 | 0.95 | 636 | 294 | N#Cc1cccc(CN2CCC3=C(C2)C(=O)N(Cc2ccc(Cl)cc2)C2=NCCN23)c1 [TR‐65] |  |  | AUC(0-inf) [3, 14]: 584 ng·h/mL
10 | 310 |  |  |  |  |  |  |  |  | N#Cc1cccc(CN2CCC3=C(C2)C(=O)N(Cc2ccc(C(F)(F)F)cc2)C2=NCCCN23)c1 [TR‐98] | 21 | 24 | 
11 | 340 |  |  |  |  |  |  |  |  | Cc1nc2c(c(=O)n1Cc1ccc(Cl)cc1)CN(Cc1cccc(C#N)c1)CC2 [TR‐97] | 104 | 53 | 
12 | 1100 |  |  |  |  |  |  |  |  | N#Cc1cccc(CC2CCC3=C(C2)C(=O)N(Cc2ccc(Cl)cc2)C2=NCCN23)c1 (stereo not shown) [TR‐122] | 2600 | 3500 | 
13 | 830 |  |  |  |  |  |  |  |  | O=C1C2=C(CCN(Cc3ccccc3)C2)N2CCN=C2N1Cc1ccc(F)cc1F [ONC206, reference compound] | 260 | 180 | 
